# Laboratory results published in ChEMBL document CHEMBL3864167, “Structure-Activity Relationship, Drug Metabolism and Pharmacokinetics Properties Optimization, and in Vivo Studies of New Brain Penetrant Triple T-Type Calcium Channel Blockers” (J Med Chem, 2016).
# Experiments:
# [1] = Antiepileptic activity in WAG/Rij rat model of generalized nonconvulsive absence like epilepsy implanted with telemetric transmitter assessed as reduction in cumulated duration of seizures at 100 mg/kg, po administered as single dose at nocturnal active phase measured after 12 hrs by […] analysis; type: functional, organism-based; set-up: scale not given: the % may be the effect or the level left
# [2] = (§1) Antiepileptic activity in WAG/Rij rat model of generalized nonconvulsive absence like epilepsy implanted with telemetric transmitter assessed as reduction in number of seizures at 100 mg/kg, po administered as single dose at nocturnal active phase measured after 3 hrs by […] analysis; type: functional, organism-based; set-up: scale not given: the % may be the effect or the level left
# [3] = as §1, with “12” for “3”, “analysis relative to control” for “analysis”; type: functional, organism-based; set-up: scale not given: the % may be the effect or the level left
# Rattus norvegicus = test: Toxicity in WAG/Rij rat model of generalized nonconvulsive absence like epilepsy at 100 mg/kg, po administered as single dose; type: organism-based; conditions: in vivo
# [4] = target: Voltage-dependent T-type calcium channel subunit alpha-1I (Homo sapiens, UniProt Q9P0X4); test: Channel blocking activity at recombinant human CaV 3.3 channel expressed in HEK293 cells assessed as inhibition of Ca2+ flux preincubated for 3 mins followed by CaCl2 addition by fluo-4 dye-based FLIPR assay; type: cell-based
# Voltage-dependent T-type calcium channel subunit alpha-1I, sequence (Q9P0X4 whole entry): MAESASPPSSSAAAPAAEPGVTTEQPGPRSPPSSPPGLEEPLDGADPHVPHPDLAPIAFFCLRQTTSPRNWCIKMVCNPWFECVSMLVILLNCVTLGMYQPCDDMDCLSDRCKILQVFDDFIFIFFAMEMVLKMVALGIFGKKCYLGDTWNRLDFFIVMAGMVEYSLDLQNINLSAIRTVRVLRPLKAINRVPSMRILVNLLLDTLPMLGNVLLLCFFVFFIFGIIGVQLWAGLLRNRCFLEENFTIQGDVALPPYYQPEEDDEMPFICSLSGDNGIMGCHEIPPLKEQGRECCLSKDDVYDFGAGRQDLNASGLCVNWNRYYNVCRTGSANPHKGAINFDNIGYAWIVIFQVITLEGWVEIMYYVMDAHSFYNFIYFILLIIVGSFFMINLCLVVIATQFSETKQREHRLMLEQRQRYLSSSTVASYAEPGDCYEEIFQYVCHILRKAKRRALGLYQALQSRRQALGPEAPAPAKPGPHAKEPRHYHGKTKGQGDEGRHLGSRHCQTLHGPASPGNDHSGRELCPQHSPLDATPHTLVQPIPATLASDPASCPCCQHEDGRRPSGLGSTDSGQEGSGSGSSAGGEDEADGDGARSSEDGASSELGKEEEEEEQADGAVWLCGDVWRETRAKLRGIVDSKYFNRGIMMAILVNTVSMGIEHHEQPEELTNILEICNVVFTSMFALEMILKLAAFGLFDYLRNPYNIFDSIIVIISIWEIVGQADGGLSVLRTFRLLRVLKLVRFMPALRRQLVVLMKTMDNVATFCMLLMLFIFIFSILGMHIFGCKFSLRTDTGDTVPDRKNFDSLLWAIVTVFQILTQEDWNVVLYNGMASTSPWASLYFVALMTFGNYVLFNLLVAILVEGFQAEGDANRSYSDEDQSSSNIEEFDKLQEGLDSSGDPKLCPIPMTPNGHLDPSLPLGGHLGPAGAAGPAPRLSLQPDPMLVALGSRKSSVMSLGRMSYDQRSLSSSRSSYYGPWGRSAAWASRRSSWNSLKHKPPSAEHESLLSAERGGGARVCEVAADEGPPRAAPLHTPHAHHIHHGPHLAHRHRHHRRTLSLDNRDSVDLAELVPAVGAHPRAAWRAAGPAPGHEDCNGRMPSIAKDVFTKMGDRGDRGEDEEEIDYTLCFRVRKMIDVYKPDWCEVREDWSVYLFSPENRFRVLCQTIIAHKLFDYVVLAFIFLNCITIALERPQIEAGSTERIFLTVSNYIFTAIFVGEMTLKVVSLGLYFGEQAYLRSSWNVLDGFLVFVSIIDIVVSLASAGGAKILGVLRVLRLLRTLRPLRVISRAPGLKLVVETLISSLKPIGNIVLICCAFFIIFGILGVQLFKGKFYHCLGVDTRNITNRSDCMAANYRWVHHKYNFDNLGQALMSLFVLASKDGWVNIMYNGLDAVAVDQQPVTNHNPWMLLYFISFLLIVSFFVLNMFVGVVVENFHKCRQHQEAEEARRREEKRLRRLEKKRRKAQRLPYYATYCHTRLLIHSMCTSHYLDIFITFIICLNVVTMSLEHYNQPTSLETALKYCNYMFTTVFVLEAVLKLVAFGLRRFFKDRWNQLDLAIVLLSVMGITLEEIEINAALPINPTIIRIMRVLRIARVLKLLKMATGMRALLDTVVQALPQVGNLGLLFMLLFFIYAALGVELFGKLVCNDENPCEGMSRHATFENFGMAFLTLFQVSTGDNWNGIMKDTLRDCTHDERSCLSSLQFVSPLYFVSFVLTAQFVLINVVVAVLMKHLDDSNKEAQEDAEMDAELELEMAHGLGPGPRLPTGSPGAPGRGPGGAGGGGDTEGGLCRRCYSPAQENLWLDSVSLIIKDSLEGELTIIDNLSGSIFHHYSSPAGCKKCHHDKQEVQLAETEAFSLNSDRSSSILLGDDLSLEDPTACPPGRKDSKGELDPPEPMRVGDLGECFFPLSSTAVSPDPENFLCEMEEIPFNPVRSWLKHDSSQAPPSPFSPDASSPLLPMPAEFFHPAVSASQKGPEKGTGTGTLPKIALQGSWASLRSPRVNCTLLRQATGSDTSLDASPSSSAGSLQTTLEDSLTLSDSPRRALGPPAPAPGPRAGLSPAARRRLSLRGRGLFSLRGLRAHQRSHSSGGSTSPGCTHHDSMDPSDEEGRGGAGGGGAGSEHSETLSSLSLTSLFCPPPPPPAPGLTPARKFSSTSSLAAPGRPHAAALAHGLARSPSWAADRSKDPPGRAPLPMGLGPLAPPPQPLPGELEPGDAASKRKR
# [5] = target: Voltage-dependent T-type calcium channel subunit alpha-1H (Homo sapiens, UniProt O95180); test: Channel blocking activity at recombinant human CaV 3.2 channel expressed in HEK293 cells assessed as inhibition of Ca2+ flux preincubated for 3 mins followed by CaCl2 addition by fluo-4 dye-based FLIPR assay; type: cell-based
# Voltage-dependent T-type calcium channel subunit alpha-1H, sequence (O95180 whole entry): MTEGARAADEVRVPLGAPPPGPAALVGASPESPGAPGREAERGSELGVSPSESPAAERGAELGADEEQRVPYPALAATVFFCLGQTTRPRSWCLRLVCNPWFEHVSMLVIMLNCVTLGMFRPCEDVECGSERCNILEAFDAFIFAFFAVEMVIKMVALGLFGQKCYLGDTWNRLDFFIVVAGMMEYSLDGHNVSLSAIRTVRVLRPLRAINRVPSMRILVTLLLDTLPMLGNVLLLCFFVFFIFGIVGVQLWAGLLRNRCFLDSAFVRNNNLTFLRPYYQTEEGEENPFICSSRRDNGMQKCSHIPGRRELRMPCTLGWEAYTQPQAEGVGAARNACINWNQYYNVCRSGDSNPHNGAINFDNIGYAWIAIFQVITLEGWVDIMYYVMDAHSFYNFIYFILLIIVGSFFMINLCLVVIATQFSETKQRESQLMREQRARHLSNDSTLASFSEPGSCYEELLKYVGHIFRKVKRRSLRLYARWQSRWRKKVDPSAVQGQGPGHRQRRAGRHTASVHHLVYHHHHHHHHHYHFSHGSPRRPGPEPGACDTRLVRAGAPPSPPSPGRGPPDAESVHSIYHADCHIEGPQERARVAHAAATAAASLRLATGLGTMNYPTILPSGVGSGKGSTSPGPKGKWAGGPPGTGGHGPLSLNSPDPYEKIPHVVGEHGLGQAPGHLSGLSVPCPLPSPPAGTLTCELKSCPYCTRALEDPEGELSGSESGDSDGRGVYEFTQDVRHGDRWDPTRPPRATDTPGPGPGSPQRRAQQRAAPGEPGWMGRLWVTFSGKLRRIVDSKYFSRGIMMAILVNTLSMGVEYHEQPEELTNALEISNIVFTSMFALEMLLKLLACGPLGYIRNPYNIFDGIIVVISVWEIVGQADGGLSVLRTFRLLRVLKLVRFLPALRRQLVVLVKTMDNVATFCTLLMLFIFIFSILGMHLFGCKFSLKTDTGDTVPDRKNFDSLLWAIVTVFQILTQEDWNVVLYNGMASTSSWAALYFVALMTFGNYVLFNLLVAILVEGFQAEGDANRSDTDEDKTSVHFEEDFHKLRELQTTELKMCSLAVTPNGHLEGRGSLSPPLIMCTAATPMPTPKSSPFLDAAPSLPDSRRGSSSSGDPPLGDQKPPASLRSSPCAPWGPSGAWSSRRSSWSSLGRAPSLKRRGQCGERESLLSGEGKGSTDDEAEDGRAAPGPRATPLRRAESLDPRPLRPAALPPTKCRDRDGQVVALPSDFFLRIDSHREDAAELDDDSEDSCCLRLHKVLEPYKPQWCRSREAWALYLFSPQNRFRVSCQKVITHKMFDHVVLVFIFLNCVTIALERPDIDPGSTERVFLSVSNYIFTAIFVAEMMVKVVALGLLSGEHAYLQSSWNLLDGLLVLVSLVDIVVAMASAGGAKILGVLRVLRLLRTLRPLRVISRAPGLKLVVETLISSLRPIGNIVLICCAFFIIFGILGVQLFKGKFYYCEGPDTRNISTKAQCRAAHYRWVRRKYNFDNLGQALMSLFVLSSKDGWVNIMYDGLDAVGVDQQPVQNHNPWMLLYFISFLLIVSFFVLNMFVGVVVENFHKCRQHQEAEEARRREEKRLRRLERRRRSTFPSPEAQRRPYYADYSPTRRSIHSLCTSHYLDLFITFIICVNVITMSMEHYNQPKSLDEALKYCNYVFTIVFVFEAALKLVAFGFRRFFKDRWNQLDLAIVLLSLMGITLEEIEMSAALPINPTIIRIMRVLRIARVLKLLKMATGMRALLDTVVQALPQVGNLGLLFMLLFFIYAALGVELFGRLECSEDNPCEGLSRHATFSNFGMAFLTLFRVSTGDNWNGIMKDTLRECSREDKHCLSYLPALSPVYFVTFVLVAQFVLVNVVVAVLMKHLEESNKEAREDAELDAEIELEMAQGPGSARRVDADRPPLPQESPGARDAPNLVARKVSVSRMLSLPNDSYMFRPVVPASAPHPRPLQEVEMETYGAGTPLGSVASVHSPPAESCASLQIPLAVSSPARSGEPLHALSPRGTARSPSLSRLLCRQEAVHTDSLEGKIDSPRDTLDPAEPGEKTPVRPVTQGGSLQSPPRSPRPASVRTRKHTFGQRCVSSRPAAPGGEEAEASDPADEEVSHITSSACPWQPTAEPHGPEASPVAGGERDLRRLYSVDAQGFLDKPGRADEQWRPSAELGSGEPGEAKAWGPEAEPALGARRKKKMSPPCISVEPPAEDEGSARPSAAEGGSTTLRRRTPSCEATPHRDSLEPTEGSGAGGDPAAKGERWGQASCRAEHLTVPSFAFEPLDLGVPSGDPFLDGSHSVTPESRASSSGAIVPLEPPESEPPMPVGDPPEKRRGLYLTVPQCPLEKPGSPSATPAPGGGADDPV
# [6] = target: Voltage-dependent T-type calcium channel subunit alpha-1G (Homo sapiens, UniProt O43497); test: Channel blocking activity at recombinant human CaV 3.1 channel expressed in HEK293 cells assessed as inhibition of Ca2+ flux preincubated for 3 mins followed by CaCl2 addition by fluo-4 dye-based FLIPR assay; type: cell-based
# Cytochrome P450 3A4 = Cytochrome P450 3A4 (Homo sapiens, UniProt P08684); test: Inhibition of CYP3A4 (unknown origin); type: ADME
# Cytochrome P450 3A4, sequence (P08684 whole entry): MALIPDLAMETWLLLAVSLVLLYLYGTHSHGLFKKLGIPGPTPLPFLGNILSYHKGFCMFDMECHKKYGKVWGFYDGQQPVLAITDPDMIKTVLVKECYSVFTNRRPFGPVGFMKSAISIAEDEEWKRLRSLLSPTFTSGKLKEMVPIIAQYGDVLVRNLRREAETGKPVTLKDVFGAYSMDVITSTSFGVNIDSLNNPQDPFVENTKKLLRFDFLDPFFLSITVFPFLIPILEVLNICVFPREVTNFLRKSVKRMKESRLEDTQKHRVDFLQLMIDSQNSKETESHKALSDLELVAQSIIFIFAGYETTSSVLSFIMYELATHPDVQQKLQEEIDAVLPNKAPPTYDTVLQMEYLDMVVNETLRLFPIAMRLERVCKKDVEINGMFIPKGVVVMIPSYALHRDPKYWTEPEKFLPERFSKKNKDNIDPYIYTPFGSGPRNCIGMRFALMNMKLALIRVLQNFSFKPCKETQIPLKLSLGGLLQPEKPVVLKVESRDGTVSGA
# [7] = Drug level in human liver microsomes treated with (+/-)-1-((3R,5S)-1-benzyl-3,5-dimethyl-2,3-dihydro-1H-benzo[e][1,4]diazepin-4(5H)-yl)-3-methoxypropan-1-one at 10 uM after 30 mins by LC-MS/MS analysis; type: ADME; conditions: 0.5 h
# [8] = Dissociation constant, pKa of compound; type: physicochemical
# MDR1 [9] = test: Apparent permeability from apical side to basolateral side in MDCK1 cells expressing MDR1; type: ADME, cell-based, Canis lupus familiaris; conditions: dog, MDCK-MDR1
# [10] = Ratio of unbound brain concentration in Wistar rat to IC50 for recombinant human CaV 3.1 channel expressed in HEK293 cells; type: ADME, cell-based
# [11] = Cmax in Wistar rat at 100 mg/kg administered through oral gavage up to 24 hrs by LC-MS-MS analysis; type: ADME, organism-based; set-up: dose 100 mg/kg, route oral; conditions: in vivo
# [12] = Solubility of the compound at pH 7; type: physicochemical; conditions: buffer
# [13] = Fraction unbound in Wistar rat plasma at 100 mg/kg, po after 1 hr by LC-MS/MS analysis; type: ADME, organism-based
# [14] = AUC in Wistar rat at 100 mg/kg administered through oral gavage up to 24 hrs by LC-MS-MS analysis; type: ADME, organism-based; set-up: dose 100 mg/kg, time < 24 hr, route oral; conditions: in vivo
# [15] = Unbound plasma concentration in Wistar rat at 100 mg/kg, po after 1 hr by LC-MS/MS analysis; type: ADME, organism-based; conditions: in vivo
# MDR1 [16] = test: Efflux ratio for apparent permeability in MDCK1 cells expressing MDR1; type: ADME, cell-based, Canis lupus familiaris; conditions: dog, MDCK-MDR1
# [17] = Ratio of drug level in brain to plasma in Wistar rat at 100 mg/kg, po after 1 hr by LC-MS/MS analysis; type: ADME, organism-based
# [18] = Ratio of unbound brain concentration in Wistar rat to IC50 for recombinant human CaV 3.2 channel expressed in HEK293 cells; type: ADME, cell-based
# MDR1 [19] = test: Apparent permeability from basolateral side to apical side in MDCK1 cells expressing MDR1; type: ADME, cell-based, Canis lupus familiaris; conditions: dog, MDCK-MDR1
# [20] = Solubility of the compound in fed state simulated intestinal fluid; type: ADME; conditions: fed state simulated intestinal fluid (FeSSIF)
# [21] = Drug uptake in Wistar rat plasma at 100 mg/kg, po after 1 hr by LC-MS/MS analysis; type: ADME, organism-based
# [22] = Solubility of the compound in fast state simulated intestinal fluid; type: ADME; conditions: fasted state simulated intestinal fluid (FaSSIF)
# [23] = Intrinsic clearance in human liver microsomes at 1 uM up to 15 mins in presence of NADPH by LC-MS-MS analysis; type: ADME; conditions: read-out: CLH
# [24] = Lipophilicity, logD of compund at pH 7.4; type: physicochemical; conditions: buffer
# [25] = Fraction unbound in Wistar rat brain at 100 mg/kg, po after 1 hr by LC-MS/MS analysis; type: ADME, organism-based
# [26] = Tmax in Wistar rat at 100 mg/kg administered through oral gavage by LC-MS-MS analysis; type: ADME, organism-based; conditions: in vivo
# [27] = Ratio of unbound brain concentration to unbound plasma concentration in Wistar rat at 100 mg/kg, po after 1 hr by LC-MS/MS analysis; type: ADME, organism-based
# [28] = Drug uptake in Wistar rat brain at 100 mg/kg, po after 1 hr by LC-MS/MS analysis; type: ADME, organism-based; conditions: read-out: Drug uptake
# [29] = Drug uptake in Wistar rat cerebrospinal fluid at 100 mg/kg, po after 1 hr by LC-MS/MS analysis; type: ADME, organism-based; conditions: read-out: Drug uptake
# [30] = Unbound brain concentration in Wistar rat at 100 mg/kg, po after 1 hr by LC-MS/MS analysis; type: ADME, organism-based; conditions: in vivo
# [31] = Ratio of unbound brain concentration in Wistar rat to IC50 for recombinant human CaV 3.3 channel expressed in HEK293 cells; type: ADME, cell-based
# [32] = Drug metabolism in human liver microsomes assessed as (+/-)-1-((3R,5S)-3,5-dimethyl-2,3-dihydro-1H-benzo[e][1,4]diazepin-4(5H)-yl)-3-methoxypropan-1-one metabolite formation at 10 uM after 30 mins by LC-MS/MS analysis; type: ADME; conditions: 0.5 h
# [33] = Intrinsic clearance in Wistar rat liver microsomes at 1 uM up to 15 mins in presence of NADPH by LC-MS-MS analysis; type: ADME; conditions: read-out: CLH
IC50 [4] [µM],IC50 [5] [µM],IC50 [6] [µM],pKa [8],Papp A→B (MDR1 [9]) [nm/s],solubility [12] [mg/mL],efflux ratio (MDR1 [16]),Papp B→A (MDR1 [19]) [nm/s],solubility [20] [mg/mL],solubility [22] [mg/mL],microsomal CLint at 1 µM [23] [µL/min/mg],logD [24],microsomal CLint at 1 µM [33] [µL/min/mg],SMILES,other results
,,,,,,,,,,,,,C[C@@H]1CN(Cc2ccccc2)c2cnccc2[C@H](C)N1C(=O)NCc1ccccc1 [listing 1 of 2 here],Activity [1]: 50%; Activity [2]: 100%; Activity [3]: 50%
0.011,0.102,0.138,,,,,,,,,,,C[C@@H]1CN(Cc2ccccc2)c2cnccc2[C@H](C)N1C(=O)NCc1ccccc1 [listing 2 of 2 here],Activity (Rattus norvegicus): Non-Toxic; IC50 (Cytochrome P450 3A4): 0.023 to 0.031 µM
,,,,,,,,,,,,,COCCC(=O)N1[C@H](C)CNc2ccccc2[C@@H]1C (racemic),Drug metabolism [7]: Metabolite_Detected
0.025,0.236,0.142,6.2,166,0.042,3.4,558,0.318,0.089,276,3.1,,C[C@@H]1CN(Cc2ccccc2)c2cnccc2[C@H](C)N1C(=O)NCc1ccccc1 (racemic),Ratio [10]: 0.25; Cmax [11]: 5.44 µg/mL; fraction unbound at 1 h [13]: 0.019; AUC at 24 h [14]: 21.8 µg·h/mL; Cp(f) [15]: 0.128 µM; BPR [17]: 24%; Ratio [18]: 0.15; concentration at 1 h [21]: 6.78 µM; fraction unbound at 1 h [25]: 0.022; Tmax [26]: 30 min; BPR [27]: 27%; concentration at 1 h [28]: 1.6 µM; concentration at 1 h [29]: 0.494 µM; Drug uptake(free) [30]: 35 nM; Ratio [31]: 1.5
,,,,,0.027,,,0.195,0.058,> 1250,,> 1250,COCCC(=O)N1[C@H](C)CN(Cc2ccccc2)c2ccccc2[C@@H]1C (racemic),Drug metabolism [32]: Metabolite_Detected
0.025,0.055,0.076,6.4,106,0.009,5.1,545,,,94,4,885,COc1ccc(CNC(=O)N2[C@H](C)CN(CCC(C)C)c3cnccc3[C@@H]2C)cc1 (racemic),
0.133,0.24,0.107,3.8 to 4.7,9,0.177,60,538,,,83,3.3,500,C[C@@H]1CN(Cc2ccccc2)c2cncc(F)c2[C@H](C)N1C(=O)Nc1cccnc1 (racemic),
0.008,0.035,0.017,,,< 0.001,,,0.02,0.006,> 1250,> 4.1,> 1250,C[C@@H]1CN(Cc2ccccc2)c2ccccc2[C@H](C)N1C(=O)NCc1ccccc1 (racemic),
0.251,0.604,0.613,4.4 to 6.3,4,0.309,140,560,,,30,3.2,496,CC(C)CCN1C[C@@H](C)N(C(=O)Nc2cccnc2)[C@@H](C)c2ccncc21 (racemic),
